How the values were obtained:
[1] = system: A375 human melanoma cells; test: Karyomorphosis test; type: cell-based; details: test compound 10 μM and 1 μM, 48 hr, nuclei stained with propidium iodide
Protocol: A375 human melanoma cells (2×10^4) (obtained from Japanese Foundation for Cancer Research) were incolulated on a culture slide (manufactured by Falcon) and were cultured at 37° C. After the elapse of 5 hr from the initiation of the cultivation, the test compound was added to 10 μM and 1 μM, and the cultivation was continued for additional 48 hr. After the fixation of cells, 50 μg/ml propidium iodide solution containing ribonuclease (200 μg/ml) was added to stain nuclei. The stained nuclei were observed under a fluorescent microscope to analyze the nuclei for abnormality of karyomorphosis.

[2] = system: activation of MAPK within vascular endothelial cells induced by VEGF stimulation; test: Inhibitory activity against activation of MAPK within vascular endothelial cells induced by VEGF stimulation; type: cell-based; details: Endothelial cell; human funicular venous vascular endothelial cells, VEGF 50 ng/ml, phosphorylated MAPK by immunoblotting
Protocol: Measurement of Inhibitory Activity Against Activation of MAPK Within Vascular Endothelial Cells Induced by VEGF Stimulation
Human funicular venous vascular endothelial cells (purchased from Chronetics) were cultured in an EGM-2 medium (purchased from Chronetics) within an incubator containing 5% carbon dioxide until 50 to 70% confluent, and the culture was inoculated into wells, containing the same medium, in a 96-well flat-bottom plate in an amount of 1.5×10^5 per well. After cultivation at 37° C. overnight, the medium was replaced by an EBM-2 medium containing 0.5% fetal calf serum (purchased from Chronetics), followed by cultivation for 24 hr. A solution of the test compound in dimethyl sulfoxide was added to each well, and the cultivation was continued at 37° C. for additional one hr. A human recombinant vascular endothelial growth factor (hereinafter abbreviated to “VEGF”) was added to a final concentration of 50 ng/ml, and the stimulation of cells was carried out at 37° C. for 8 min. The medium was removed, the cells were washed with phosphate buffered saline (pH 7.4), and 10 μl of a solubilization buffer (Tris buffered saline (pH 7.4) containing 1% Triton X100, 2 mM sodium orthovanadylate, and 1 mM disodium ethylenediaminetetraacetate) was then added thereto. The mixture was shaken at 4° C. for one hr to solubilize the cells. An equal amount of Tris buffered saline containing 1% sodium laurylsulfate was added to and thoroughly mixed with the solution. This solution (2 μl) was adsorbed on a PVDF filter by dot blotting, and this filter was subjected to immunoblotting with anti-tyrosine phosphorylated MAPK antibody (purchased from Daiichi Pure Chemicals).
The level of phosphorylated MAPK was quantitatively determined with a densitometer, and the percentage phosphorylated MAPK in the presence of the test compound was determined by presuming the level of phosphorylated MAPK with the addition of VEGF in the absence of the test compound to be 100% and the level of phosphorylated MAPK in the absence of the test compound and VEGF to be 0%. The test compound concentration (IC50) necessary for inhibiting 50% of the activation of MAPK was calculated based on the percentage of phosphorylated MAPK.

Human glioma cells GL07 = test: Antitumor effect on human glioma cells (GL07) transplanted into nude mice; type: in vivo; details: Mus musculus, Glioma cell, 216 h, GL07, oral, 20 mg/kg once a day for 9 days, read-out: TGIR, % (tumor growth inhibition rate)
Procedure, shortened: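 GL07 xenografts in nude mice, grouped (n=4) at ~100 mm^3 tumor volume. Test compound 20 mg/kg p.o. or i.p. once daily for 9 days; vehicle controls. TGIR = (1−Tx/Cx)×100 from tumor volumes normalized to day-of-start volume = 1.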

human KDR = molecular target: T1, human KDR (Homo sapiens, UniProt P35968); test: Inhibitory activity against KDR phosphorylation by ELISA; type: cell-based; details: NIH 3T3 cells transfected with human KDR, VEGF 100 ng/ml
T1 construct: expressed in transfected cells; host or cells: NIH 3T3 cells (Sawano A et al., Cell Growth & Differentiation 7, 213-221 (1996))
T1 sequence (P35968 20-1356): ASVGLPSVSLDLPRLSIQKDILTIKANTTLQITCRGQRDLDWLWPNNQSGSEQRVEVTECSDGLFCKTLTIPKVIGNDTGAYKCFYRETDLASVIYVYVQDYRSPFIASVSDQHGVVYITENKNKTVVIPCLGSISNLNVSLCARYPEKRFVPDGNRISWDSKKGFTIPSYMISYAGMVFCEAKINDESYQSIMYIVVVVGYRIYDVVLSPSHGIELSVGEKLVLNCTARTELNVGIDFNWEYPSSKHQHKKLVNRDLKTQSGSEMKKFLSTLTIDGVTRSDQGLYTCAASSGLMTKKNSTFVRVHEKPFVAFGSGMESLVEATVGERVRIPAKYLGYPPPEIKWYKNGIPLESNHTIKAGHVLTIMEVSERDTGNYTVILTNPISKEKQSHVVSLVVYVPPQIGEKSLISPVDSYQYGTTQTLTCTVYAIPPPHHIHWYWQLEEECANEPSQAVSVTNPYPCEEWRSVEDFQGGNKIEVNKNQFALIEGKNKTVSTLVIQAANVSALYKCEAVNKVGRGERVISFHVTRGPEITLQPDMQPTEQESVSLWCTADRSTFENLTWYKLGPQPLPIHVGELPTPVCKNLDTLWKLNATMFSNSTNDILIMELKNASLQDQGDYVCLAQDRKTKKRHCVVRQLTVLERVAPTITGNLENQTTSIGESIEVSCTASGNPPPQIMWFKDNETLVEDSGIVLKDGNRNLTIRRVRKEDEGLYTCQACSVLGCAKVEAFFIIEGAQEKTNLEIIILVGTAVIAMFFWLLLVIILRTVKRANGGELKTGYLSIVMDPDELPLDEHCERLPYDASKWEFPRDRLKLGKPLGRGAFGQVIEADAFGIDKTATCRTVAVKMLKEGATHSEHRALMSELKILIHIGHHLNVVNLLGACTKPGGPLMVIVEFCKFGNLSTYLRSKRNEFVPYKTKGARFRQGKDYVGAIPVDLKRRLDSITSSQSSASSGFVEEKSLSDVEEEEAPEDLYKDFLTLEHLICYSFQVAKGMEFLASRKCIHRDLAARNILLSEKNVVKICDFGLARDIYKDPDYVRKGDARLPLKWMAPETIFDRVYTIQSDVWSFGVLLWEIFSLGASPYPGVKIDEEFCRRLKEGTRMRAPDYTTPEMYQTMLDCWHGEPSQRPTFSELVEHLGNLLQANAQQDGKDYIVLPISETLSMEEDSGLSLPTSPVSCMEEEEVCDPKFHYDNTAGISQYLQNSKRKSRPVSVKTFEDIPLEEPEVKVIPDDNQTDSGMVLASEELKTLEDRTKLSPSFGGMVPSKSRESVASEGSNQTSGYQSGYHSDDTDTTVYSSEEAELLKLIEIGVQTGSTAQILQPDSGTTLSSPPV

IC50 [2] [nM] | IC50 (human KDR) [nM] | SMILES | Change in morphosis [1] | inhibition in vivo at 20 mg/kg (Human glioma cells GL07) [%]
 |  | COc1cc2ncnc(Oc3ccc(NC(=O)Nc4ccc(F)cc4F)c(Cl)c3)c2cc1OC [Example 61, N-{2-Chloro-4-[(6,7-dimethoxy-4-quinazolinyl)oxy]phenyl}-N′-(2,4-difluorophenyl)urea] | (−) (the change in karyomorphosis of cells did not take place at 10 μM) | 
450 | 330 | CCCCNC(=O)Nc1ccc(Oc2ncnc3cc(OC)c(OC)cc23)c(C)c1 [Example 98, N-Butyl-N′-{4-[(6,7-dimethoxy-4-quinazolinyl)oxy]-3-methylphenyl}urea] |  | 38
2.3 | 2 | COc1cc2ncnc(Oc3ccc(NC(=O)Nc4ccc(F)cc4)c(C)c3)c2cc1OC [Example 105, N-{4-[(6,7-Dimethoxy-4-quinazolinyl)oxy]-2-methylphenyl}-N′-(4-fluorophenyl)urea] |  | 20
5.2 | 13 | COc1cc2ncnc(Oc3ccc(NC(=O)Nc4ccc(F)cc4)cc3C)c2cc1OC [Example 100, N-{4-[(6,7-Dimethoxy-4-quinazolinyl)oxy)-3-methylphenyl}-N′-(4-fluorophenyl)urea] |  | 36
71 | 6 | CCCCNC(=O)Nc1ccc(Oc2ncnc3cc(OC)c(OC)cc23)cc1Cl [Example 77, N-Butyl-N′-{2-chloro-4-[(6,7-dimethoxy-4-quinazolinyl)oxy]phenyl}urea] |  | 26
8.8 | 25 | COc1cc2ncnc(Oc3ccc(NC(=O)Nc4ccc(F)cc4F)cc3C)c2cc1OC [Example 99, N-(2,4-Difluorophenyl)-N′-{4-[(6,7-dimethoxy-4-quinazolinyl)oxy]-3-methylpenyl}urea] |  | 33
 |  | CCCNC(=O)Nc1cc(C)c(Oc2ccnc3cc(OC)c(OC)cc23)cc1C [Example 38, N-{4-[(6,7-Dimethoxy-4-quinolyl)oxy]-2,5-dimethylphenyl}-N′-propylurea] | (−) (the change in karyomorphosis of cells did not take place at 10 μM) | 
45 | 24 | C=CCNC(=O)Nc1ccc(Oc2ncnc3cc(OC)c(OC)cc23)cc1 [Example 68, N-Allyl-N′-{4-[(6,7-Dimethoxy-4-quinazolinyl)oxy]phenyl}urea] |  | 57
 |  | COc1cc2nccc(Oc3ccc(NC(=O)Nc4ccc(Br)c(C)n4)c(Cl)c3)c2cc1OC [Example 15, N-(5-Bromo-6-methyl-2-pyridyl)-N′-{2-chloro-4-[(6,7-dimethoxy-4-quinolyl)oxy]phenyl}urea] | (−) (the change in karyomorphosis of cells did not take place at 10 μM) | 
150 | 105 | CCCNC(=O)Nc1ccc(Oc2ncnc3cc(OC)c(OC)cc23)cc1C [Example 102, N-{4-[(6,7-Dimethoxy-4-quinazolinyl)oxy]-2-methylphenyl}-N′-propylurea] |  | 24
< 2 | 1 | COc1cc2ncnc(Oc3ccc(NC(=O)Nc4ccc(F)cc4)cc3)c2cc1OC [Example 73, N-{4-[(6,7-Dimethoxy-4-quinazolinyl)oxy]-phenyl}-N′-(4-fluorophenyl)urea] |  | 34
45 | 24 | CCCCNC(=O)Nc1ccc(Oc2ncnc3cc(OC)c(OC)cc23)cc1F [Example 89, N-Butyl-N′-{4-[(6,7-dimethoxy-4-quinazolinyl)oxy]-2-fluorophenyl}urea] |  | 40
21 | 15 | CCCCCNC(=O)Nc1ccc(Oc2ncnc3cc(OC)c(OC)cc23)cc1 [Example 66, N-{4-[(6,7-Dimethoxy-4-quinazolinyl)oxy]-phenyl}-N′-pentylurea] |  | 26
1.8 | 2.3 | COc1cc2ncnc(Oc3ccc(NC(=O)Nc4ccc(F)cc4F)c(F)c3)c2cc1OC [Example 94, N-(2,4-Difluorophenyl)-N′-{4-[(6,7-dimethoxy-4-quinazolinyl)oxy]-2-fluorophenyl}urea] |  | 29
4.1 | 3.4 | CCCCCNC(=O)Nc1ccc(Oc2ncnc3cc(OC)c(OC)cc23)cc1Cl [Example 78, N-{2-Chloro-4-[(6,7-dimethoxy-4-quinazolinyl)oxy]phenyl}-N′-pentylurea] |  | 21
 |  | COc1ccccc1NC(=O)Nc1ccc(Oc2ccnc3cc(OCc4ccccc4)c(OC)cc23)c(C)c1C [Example 60, N-(4-{[7-(Benzyloxy)-6-methoxy-4-quinolyl]oxy}-2,3-dimethylphenyl)-N′-(2-methoxyphenyl)-urea] | (−) (the change in karyomorphosis of cells did not take place at 10 μM) | 
518 | 490 | CCCNC(=O)Nc1ccc(Oc2ncnc3cc(OC)c(OC)cc23)c(C)c1 [Example 97, N-{4-[(6,7-Dimethoxy-4-quinazolinyl)oxy]-3′-methylphenyl}-N′-propylurea] |  | 48
0.7 | 0.5 | COc1cc2ncnc(Oc3ccc(NC(=O)Nc4ccc(F)cc4)c(Cl)c3)c2cc1OC [Example 85, N-{2-Chloro-4-[(6,7-dimethoxy-4-quinazolinyl)oxy]phenyl}-N′-(4-fluorophenyl)urea] |  | 26
53 | 78 | CCCCNC(=O)Nc1ccc(Oc2ncnc3cc(OC)c(OC)cc23)cc1C [Example 103, N-Butyl-N′-{4-[(6,7-dimethoxy-4-quinazolinyl)oxy]-2-methylphenyl}urea] |  | 23
 |  | COc1cc2nccc(Oc3cc(C)c(NC(=O)Nc4ccc(Cl)cc4C)cc3C)c2cc1OC [Example 39, N-(4-chloro-2-methylphenyl)-N′-{4-[(6,7-dimethoxy-4-quinolyl)oxy]-2,5-dimethylphenyl}urea] | (−) (the change in karyomorphosis of cells did not take place at 10 μM) | 
345 | 63 | CCC(C)NC(=O)Nc1ccc(Oc2ncnc3cc(OC)c(OC)cc23)cc1 (stereo not drawn) [Example 67, N-(sec-Butyl)-N′-{4-[(6,7-dimethoxy-4-quinazolinyl)oxy]phenyl}urea] |  | 30
13 | 2.7 | C=CCNC(=O)Nc1ccc(Oc2ncnc3cc(OC)c(OC)cc23)cc1Cl [Example 80, N-Allyl-N′-{2-chloro-4-[(6,7-dimethoxy-4-quinazolinyl)oxy]phenyl}urea] |  | 52
10.2 | 11 | CCCNC(=O)Nc1ccc(Oc2ncnc3cc(OC)c(OC)cc23)cc1[N+](=O)[O-] [Example 107, N-{4-[(6,7-Dimethoxy-4-quinazolinyl)oxy]-2-nitrophenyl}-N′-propylurea] |  | 49
 |  | COc1cc2nccc(Oc3cc(C)c(NC(=O)Nc4ccc(Br)c(C)n4)cc3C)c2cc1OC [Example 44, N-(5-Bromo-6-methyl-2-pyridyl)-N′-{4-[(6,7-dimethoxy-4-quinolyl)oxy]-2,5-dimethylphenyl}urea] | (−) (the change in karyomorphosis of cells did not take place at 10 μM) | 
750 | 350 | COc1cc2ncnc(Oc3ccc(NC(=O)NCc4ccccn4)cc3)c2cc1OC [Example 71, N-{4-[(6,7-Dimethoxy-4-quinazolinyl)oxy]-phenyl}-N′-(2-pyridylmethyl)urea] |  | 67
30 | 18 | CCC(C)NC(=O)Nc1ccc(Oc2ncnc3cc(OC)c(OC)cc23)cc1Cl (stereo not drawn) [Example 79, N-(sec-Butyl)-N′-{2-chloro-4-[(6,7-dimethoxy-4-quinazolinyl)oxy]phenyl}urea] |  | 28
